Experimental data taken from BigSolDB 2.1.

[1] = in tetrachloromethane, 278.15 K
[2] = in tetrachloromethane, 280.65 K
[3] = in tetrachloromethane, 283.15 K
[4] = in tetrachloromethane, 285.65 K
[5] = in tetrachloromethane, 288.15 K
[6] = in tetrachloromethane, 290.65 K
[7] = in tetrachloromethane, 293.15 K
[8] = in tetrachloromethane, 295.65 K
[9] = in tetrachloromethane, 298.15 K
[10] = in tetrachloromethane, 300.65 K
[11] = in tetrachloromethane, 303.15 K

**Q.** What does the source list for `O=[N+]([O-])c1cccc(Cl)c1Cl`?
**A.** solubility (mole fraction) (in cyclohexane, 278.15 K): 0.0137; solubility (mole fraction) (in cyclohexane, 280.65 K): 0.0156; solubility (mole fraction) (in cyclohexane, 283.15 K): 0.0184; solubility (mole fraction) (in cyclohexane, 285.65 K): 0.0199; solubility (mole fraction) (in cyclohexane, 288.15 K): 0.0212; solubility (mole fraction) (in cyclohexane, 290.65 K): 0.0266; solubility (mole fraction) (in cyclohexane, 293.15 K): 0.0317; solubility (mole fraction) (in cyclohexane, 295.65 K): 0.0377; solubility (mole fraction) (in cyclohexane, 298.15 K): 0.0421; solubility (mole fraction) (in cyclohexane, 300.65 K): 0.0474; solubility (mole fraction) (in cyclohexane, 303.15 K): 0.0549; solubility (mole fraction) (in ethyl acetate, 278.15 K): 0.212; solubility (mole fraction) (in ethyl acetate, 280.65 K): 0.269; solubility (mole fraction) (in ethyl acetate, 283.15 K): 0.331; solubility (mole fraction) (in ethyl acetate, 285.65 K): 0.388; solubility (mole fraction) (in ethyl acetate, 288.15 K): 0.435; solubility (mole fraction) (in ethyl acetate, 290.65 K): 0.486; solubility (mole fraction) (in ethyl acetate, 293.15 K): 0.521; solubility (mole fraction) (in ethyl acetate, 295.65 K): 0.569; solubility (mole fraction) (in ethyl acetate, 298.15 K): 0.592; solubility (mole fraction) (in ethyl acetate, 300.65 K): 0.645; solubility (mole fraction) (in ethyl acetate, 303.15 K): 0.682; solubility (mole fraction) (in isopropanol, 278.15 K): 0.00992; solubility (mole fraction) (in isopropanol, 280.65 K): 0.0116; solubility (mole fraction) (in isopropanol, 283.15 K): 0.0148; solubility (mole fraction) (in isopropanol, 285.65 K): 0.0169; solubility (mole fraction) (in isopropanol, 288.15 K): 0.0199; solubility (mole fraction) (in isopropanol, 290.65 K): 0.0243; solubility (mole fraction) (in isopropanol, 293.15 K): 0.0286; solubility (mole fraction) (in isopropanol, 295.65 K): 0.0336; solubility (mole fraction) (in isopropanol, 298.15 K): 0.0394; solubility (mole fraction) (in isopropanol, 300.65 K): 0.0452; solubility (mole fraction) (in isopropanol, 303.15 K): 0.05; solubility (mole fraction) (in n-butanol, 278.15 K): 0.0254; solubility (mole fraction) (in n-butanol, 280.65 K): 0.0331; solubility (mole fraction) (in n-butanol, 283.15 K): 0.0401; solubility (mole fraction) (in n-butanol, 285.65 K): 0.0453; solubility (mole fraction) (in n-butanol, 288.15 K): 0.0501; solubility (mole fraction) (in n-butanol, 290.65 K): 0.0527; solubility (mole fraction) (in n-butanol, 293.15 K): 0.0563; solubility (mole fraction) (in n-butanol, 295.65 K): 0.0589; solubility (mole fraction) (in n-butanol, 298.15 K): 0.0614; solubility (mole fraction) (in n-butanol, 300.65 K): 0.0645; solubility (mole fraction) (in n-butanol, 303.15 K): 0.0679; solubility (mole fraction) (in n-heptane, 278.15 K): 0.00633; solubility (mole fraction) (in n-heptane, 280.65 K): 0.00962; solubility (mole fraction) (in n-heptane, 283.15 K): 0.0128; solubility (mole fraction) (in n-heptane, 285.65 K): 0.0146; solubility (mole fraction) (in n-heptane, 288.15 K): 0.017; solubility (mole fraction) (in n-heptane, 290.65 K): 0.0212; solubility (mole fraction) (in n-heptane, 293.15 K): 0.0251; solubility (mole fraction) (in n-heptane, 295.65 K): 0.0276; solubility (mole fraction) (in n-heptane, 298.15 K): 0.0322; solubility (mole fraction) (in n-heptane, 300.65 K): 0.0345; solubility (mole fraction) (in n-heptane, 303.15 K): 0.038; solubility (mole fraction) (in n-hexane, 278.15 K): 0.00535; solubility (mole fraction) (in n-hexane, 280.65 K): 0.00888; solubility (mole fraction) (in n-hexane, 283.15 K): 0.0112; solubility (mole fraction) (in n-hexane, 285.65 K): 0.0134; solubility (mole fraction) (in n-hexane, 288.15 K): 0.015; solubility (mole fraction) (in n-hexane, 290.65 K): 0.0172; solubility (mole fraction) (in n-hexane, 293.15 K): 0.0214; solubility (mole fraction) (in n-hexane, 295.65 K): 0.0231; solubility (mole fraction) (in n-hexane, 298.15 K): 0.0245; solubility (mole fraction) (in n-hexane, 300.65 K): 0.0277; solubility (mole fraction) (in n-hexane, 303.15 K): 0.031; solubility (mole fraction) (in n-propanol, 278.15 K): 0.0222; solubility (mole fraction) (in n-propanol, 280.65 K): 0.0247; solubility (mole fraction) (in n-propanol, 283.15 K): 0.0275; solubility (mole fraction) (in n-propanol, 285.65 K): 0.0295; solubility (mole fraction) (in n-propanol, 288.15 K): 0.0318; solubility (mole fraction) (in n-propanol, 290.65 K): 0.035; solubility (mole fraction) (in n-propanol, 293.15 K): 0.0387; solubility (mole fraction) (in n-propanol, 295.65 K): 0.0421; solubility (mole fraction) (in n-propanol, 298.15 K): 0.0456; solubility (mole fraction) (in n-propanol, 300.65 K): 0.0511; solubility (mole fraction) (in n-propanol, 303.15 K): 0.0575; solubility (mole fraction) [1]: 0.0619; solubility (mole fraction) [2]: 0.0811; solubility (mole fraction) [3]: 0.097; solubility (mole fraction) [4]: 0.11; solubility (mole fraction) [5]: 0.12; solubility (mole fraction) [6]: 0.13; solubility (mole fraction) [7]: 0.15; solubility (mole fraction) [8]: 0.194; solubility (mole fraction) [9]: 0.241; solubility (mole fraction) [10]: 0.312; solubility (mole fraction) [11]: 0.38

**Q.** What does the source list for `O=[N+]([O-])c1ccc(Cl)c(Cl)c1`?
**A.** solubility (mole fraction) (in cyclohexane, 278.15 K): 0.0568; solubility (mole fraction) (in cyclohexane, 280.65 K): 0.0632; solubility (mole fraction) (in cyclohexane, 283.15 K): 0.0703; solubility (mole fraction) (in cyclohexane, 285.65 K): 0.0774; solubility (mole fraction) (in cyclohexane, 288.15 K): 0.0865; solubility (mole fraction) (in cyclohexane, 290.65 K): 0.111; solubility (mole fraction) (in cyclohexane, 293.15 K): 0.154; solubility (mole fraction) (in cyclohexane, 295.65 K): 0.25; solubility (mole fraction) (in cyclohexane, 298.15 K): 0.343; solubility (mole fraction) (in cyclohexane, 300.65 K): 0.511; solubility (mole fraction) (in cyclohexane, 303.15 K): 0.751; solubility (mole fraction) (in ethyl acetate, 278.15 K): 0.249; solubility (mole fraction) (in ethyl acetate, 280.65 K): 0.332; solubility (mole fraction) (in ethyl acetate, 283.15 K): 0.405; solubility (mole fraction) (in ethyl acetate, 285.65 K): 0.463; solubility (mole fraction) (in ethyl acetate, 288.15 K): 0.541; solubility (mole fraction) (in ethyl acetate, 290.65 K): 0.602; solubility (mole fraction) (in ethyl acetate, 293.15 K): 0.668; solubility (mole fraction) (in ethyl acetate, 295.65 K): 0.719; solubility (mole fraction) (in ethyl acetate, 298.15 K): 0.778; solubility (mole fraction) (in ethyl acetate, 300.65 K): 0.822; solubility (mole fraction) (in ethyl acetate, 303.15 K): 0.866; solubility (mole fraction) (in isopropanol, 278.15 K): 0.0157; solubility (mole fraction) (in isopropanol, 280.65 K): 0.0199; solubility (mole fraction) (in isopropanol, 283.15 K): 0.0221; solubility (mole fraction) (in isopropanol, 285.65 K): 0.0272; solubility (mole fraction) (in isopropanol, 288.15 K): 0.0318; solubility (mole fraction) (in isopropanol, 290.65 K): 0.036; solubility (mole fraction) (in isopropanol, 293.15 K): 0.0439; solubility (mole fraction) (in isopropanol, 295.65 K): 0.0615; solubility (mole fraction) (in isopropanol, 298.15 K): 0.0783; solubility (mole fraction) (in isopropanol, 300.65 K): 0.0981; solubility (mole fraction) (in isopropanol, 303.15 K): 0.124; solubility (mole fraction) (in n-butanol, 278.15 K): 0.0389; solubility (mole fraction) (in n-butanol, 280.65 K): 0.0443; solubility (mole fraction) (in n-butanol, 283.15 K): 0.0486; solubility (mole fraction) (in n-butanol, 285.65 K): 0.0542; solubility (mole fraction) (in n-butanol, 288.15 K): 0.0593; solubility (mole fraction) (in n-butanol, 290.65 K): 0.0665; solubility (mole fraction) (in n-butanol, 293.15 K): 0.0735; solubility (mole fraction) (in n-butanol, 295.65 K): 0.0819; solubility (mole fraction) (in n-butanol, 298.15 K): 0.0999; solubility (mole fraction) (in n-butanol, 300.65 K): 0.118; solubility (mole fraction) (in n-butanol, 303.15 K): 0.136; solubility (mole fraction) (in n-heptane, 278.15 K): 0.0296; solubility (mole fraction) (in n-heptane, 280.65 K): 0.0326; solubility (mole fraction) (in n-heptane, 283.15 K): 0.0424; solubility (mole fraction) (in n-heptane, 285.65 K): 0.0451; solubility (mole fraction) (in n-heptane, 288.15 K): 0.0505; solubility (mole fraction) (in n-heptane, 290.65 K): 0.0564; solubility (mole fraction) (in n-heptane, 293.15 K): 0.063; solubility (mole fraction) (in n-heptane, 295.65 K): 0.0662; solubility (mole fraction) (in n-heptane, 298.15 K): 0.0729; solubility (mole fraction) (in n-heptane, 300.65 K): 0.0908; solubility (mole fraction) (in n-heptane, 303.15 K): 0.132; solubility (mole fraction) (in n-hexane, 278.15 K): 0.0293; solubility (mole fraction) (in n-hexane, 280.65 K): 0.0363; solubility (mole fraction) (in n-hexane, 283.15 K): 0.0425; solubility (mole fraction) (in n-hexane, 285.65 K): 0.0476; solubility (mole fraction) (in n-hexane, 288.15 K): 0.0518; solubility (mole fraction) (in n-hexane, 290.65 K): 0.0572; solubility (mole fraction) (in n-hexane, 293.15 K): 0.0634; solubility (mole fraction) (in n-hexane, 295.65 K): 0.0699; solubility (mole fraction) (in n-hexane, 298.15 K): 0.0824; solubility (mole fraction) (in n-hexane, 300.65 K): 0.115; solubility (mole fraction) (in n-hexane, 303.15 K): 0.173; solubility (mole fraction) (in n-propanol, 278.15 K): 0.0506; solubility (mole fraction) (in n-propanol, 280.65 K): 0.0519; solubility (mole fraction) (in n-propanol, 283.15 K): 0.0537; solubility (mole fraction) (in n-propanol, 285.65 K): 0.0582; solubility (mole fraction) (in n-propanol, 288.15 K): 0.0634; solubility (mole fraction) (in n-propanol, 290.65 K): 0.0724; solubility (mole fraction) (in n-propanol, 293.15 K): 0.0819; solubility (mole fraction) (in n-propanol, 295.65 K): 0.0935; solubility (mole fraction) (in n-propanol, 298.15 K): 0.115; solubility (mole fraction) (in n-propanol, 300.65 K): 0.139; solubility (mole fraction) (in n-propanol, 303.15 K): 0.173; solubility (mole fraction) [1]: 0.129; solubility (mole fraction) [2]: 0.182; solubility (mole fraction) [3]: 0.244; solubility (mole fraction) [4]: 0.302; solubility (mole fraction) [5]: 0.362; solubility (mole fraction) [6]: 0.435; solubility (mole fraction) [7]: 0.511; solubility (mole fraction) [8]: 0.572; solubility (mole fraction) [9]: 0.644; solubility (mole fraction) [10]: 0.722; solubility (mole fraction) [11]: 0.792
